From the NIST ThermoML archive (doi:10.1016/j.jct.2008.01.012)

Columns and labels:
[1] = Liquid, Diaphragm manometer
[2] = excess molar enthalpy (molar enthalpy of mixing); xn = mol fraction of the nth substance listed; details: 303.15 K, 101 kPa, Liquid, Calvet calorimetry

CCCCCCC [heptane]
[1]
Details | vapor or sublimation pressure [kPa]
303.15 K | 7.786
313.15 K | 12.32
323.15 K | 18.85
333.15 K | 27.98
343.15 K | 40.43

CCN(CC)CCCN [N,N-diethylpropane-1,3-diamine] + CCCCCC
[2]
Details | excess molar enthalpy [kJ/mol]
x1 = 0.0798 | 0.446
x1 = 0.1311 | 0.637
x1 = 0.212 | 0.846
x1 = 0.2521 | 0.9
x1 = 0.3083 | 0.97
x1 = 0.3089 | 0.972
x1 = 0.3472 | 0.999
x1 = 0.3858 | 1
x1 = 0.4188 | 1.01
x1 = 0.4682 | 1.01
x1 = 0.4835 | 1.01
x1 = 0.5079 | 1
x1 = 0.5984 | 0.96
x1 = 0.7107 | 0.81
x1 = 0.802 | 0.61
x1 = 0.8762 | 0.409

CCN(CC)CCCN [N,N-diethylpropane-1,3-diamine] + CCCCCCCCCCCC
[2]
Details | excess molar enthalpy [kJ/mol]
x1 = 0.0601 | 0.383
x1 = 0.1207 | 0.673
x1 = 0.2122 | 1.01
x1 = 0.3099 | 1.25
x1 = 0.4093 | 1.36
x1 = 0.4522 | 1.37
x1 = 0.5054 | 1.37
x1 = 0.6037 | 1.3
x1 = 0.71 | 1.12
x1 = 0.8047 | 0.866
x1 = 0.9021 | 0.497
x1 = 0.9498 | 0.271

CCN(CC)CCCN [N,N-diethylpropane-1,3-diamine]
[1]
Details | vapor or sublimation pressure [kPa]
303.15 K | 0.31
313.15 K | 0.586
323.15 K | 1.053
333.15 K | 1.809
343.15 K | 2.987

CCN(CC)CCCN [N,N-diethylpropane-1,3-diamine] + CCCCCCC
[2]
Details | excess molar enthalpy [kJ/mol]
x1 = 0.0503 | 0.27
x1 = 0.1038 | 0.508
x1 = 0.1491 | 0.671
x1 = 0.2452 | 0.906
x1 = 0.3961 | 1.07
x1 = 0.4516 | 1.08
x1 = 0.5013 | 1.07
x1 = 0.5973 | 0.982
x1 = 0.7014 | 0.832
x1 = 0.7987 | 0.623
x1 = 0.8974 | 0.349
